Measurements published in ChEMBL document CHEMBL5053516, “Cinchona Alkaloid-Inspired Urea-Containing Autophagy Inhibitor Shows Single-Agent Anticancer Efficacy” (J Med Chem, 2021).
One block for each molecule: values may come before it. The source made the active and inactive calls. The rule behind the calls is not given here.

Key:
[1] = system: Mahlavu; assay: Cytotoxicity against human Mahlavu cells assessed as cell viability by MTT assay; format: functional, cell-based
[2] = Cytotoxicity against mouse HCA1 cells assessed as cell viability by MTT assay; format: functional, cell-based
[3] = system: Hep 3B2; assay: Cytotoxicity against human Hep3B cells assessed as cell viability by MTT assay; format: functional, cell-based
[4] = Cytotoxicity against human JHH7 cells assessed as cell viability by MTT assay; format: functional, cell-based
[5] = system: HepG2; assay: Cytotoxicity against human HepG2 cells assessed as cell viability by MTT assay; format: functional, cell-based
[6] = Cytotoxicity against mouse FL83B cells assessed as cell viability by MTT assay; format: cell-based
[7] = system: HCA1; assay: Induction of apoptosis in mouse HCA1 cells after 16 hrs using annexin V/PI staining assay; format: functional, cell-based
[8] = system: Mahlavu; assay: Induction of apoptosis in human Mahlavu cells after 16 hrs using annexin V/PI staining assay; format: functional, cell-based
[9] = system: HCA1; assay: Downregulation of Akt expression in mouse HCA1 cells by Western blot analysis; format: functional, cell-based
[10] = system: Mahlavu; assay: Downregulation of Akt expression in human Mahlavu cells by Western blot analysis; format: functional, cell-based
[11] = biological target: Serine/threonine-protein kinase AKT (Homo sapiens) (UniProt P31751+Q9Y243+P31749); assay: Inhibition of Akt phosphorylation in human Hep3B cells by Western blot analysis; format: cell-based
[12] = system: HCA1; assay: Reduction in Bcl-xL expression in mouse HCA1 cells by Western blot analysis; format: functional, cell-based
[13] = system: Mahlavu; assay: Reduction in Bcl-xL expression in human Mahlavu cells by Western blot analysis; format: functional, cell-based
[14] = system: Mahlavu; assay: Reduction in p53 expression in human Mahlavu cells by Western blot analysis; format: functional, cell-based
[15] = system: HCA1; assay: Induction of apoptosis in mouse HCA1 cells assessed as increase in cleaved caspase 3 measured after 2 hrs by Western blot analysis; format: functional, cell-based
[16] = system: Mahlavu; assay: Induction of apoptosis in human Mahlavu cells assessed as increase in cleaved caspase 3 measured after 2 hrs by Western blot analysis; format: functional, cell-based
[17] = system: HCA1; assay: Inhibition of autophagy in mouse HCA1 cells assessed as increase in LC3-II measured after 2 to 6 hrs by Western blot analysis; format: functional, cell-based; conditions: time 2-6 hrs
[18] = system: Mahlavu; assay: Inhibition of autophagy in human Mahlavu cells assessed as increase in LC3-II measured after 2 to 6 hrs by Western blot analysis; format: functional, cell-based; conditions: time 2-6 hrs
[19] = system: Hep 3B2; assay: Inhibition of autophagy in human Hep3B cells assessed as increase in LC3-II measured after 2 to 6 hrs by Western blot analysis; format: functional, cell-based; conditions: time 2-6 hrs
[20] = system: HCA1; assay: Inhibition of autophagy in mouse HCA1 cells assessed as increase in p62 expression measured after 2 to 6 hrs by Western blot analysis; format: functional, cell-based; conditions: time 2-6 hrs
[21] = system: Mahlavu; assay: Inhibition of autophagy in human Mahlavu cells assessed as increase in p62 expression measured after 2 to 6 hrs by Western blot analysis; format: functional, cell-based; conditions: time 2-6 hrs
[22] = system: Hep 3B2; assay: Inhibition of autophagy in human Hep3B cells assessed as increase in p62 expression measured after 2 to 6 hrs by Western blot analysis; format: functional, cell-based; conditions: time 2-6 hrs
[23] = system: HCA1; assay: Effect on LC3-I expression in mouse HCA1 cells at 0.5 uM by Western blot analysis; format: functional, cell-based
[24] = system: Mahlavu; assay: Effect on LC3-I expression in human Mahlavu cells at 0.5 uM by Western blot analysis; format: functional, cell-based
[25] = system: Hep 3B2; assay: Effect on LC3-I expression in human Hep3B cells at 0.5 uM by Western blot analysis; format: functional, cell-based
[26] = system: HCA1; assay: Inhibition of autophagosome-lysosome fusion in mouse HCA1 cells assessed as number of LC3 puncta at 1 uM for 2 hrs by immunofluorescence assay; format: functional, cell-based
[27] = system: Mahlavu; assay: Inhibition of autophagosome-lysosome fusion in human Mahlavu cells assessed as number of LC3 puncta at 1 uM for 2 hrs by immunofluorescence assay; format: functional, cell-based
[28] = system: HCA1; assay: Inhibition of autophagy in mouse HCA1 cells assessed as increase in LC3-II measured at 0.1 to 0.5 uM by Western blot analysis; format: functional, cell-based; conditions: dose 0.1-0.5 µM, time 2-6 hrs, TDE = time-dependent effect
[29] = system: Mahlavu; assay: Inhibition of autophagy in human Mahlavu cells assessed as increase in LC3-II measured at 0.1 to 0.5 uM by Western blot analysis; format: functional, cell-based; conditions: dose 0.1-0.5 µM, time 2-6 hrs, TDE = time-dependent effect
[30] = system: Hep 3B2; assay: Inhibition of autophagy in human Hep3B cells assessed as increase in LC3-II measured at 0.1 to 0.5 uM by Western blot analysis; format: functional, cell-based; conditions: dose 0.1-0.5 µM, time 2-6 hrs, TDE = time-dependent effect
[31] = system: HCA1; assay: Inhibition of autophagy in mouse HCA1 cells assessed as increase in p62 expression measured at 0.1 to 0.5 uM by Western blot analysis; format: functional, cell-based; conditions: dose 0.1-0.5 µM, time 2-6 hrs, TDE = time-dependent effect
[32] = system: Mahlavu; assay: Inhibition of autophagy in human Mahlavu cells assessed as increase in p62 expression measured at 0.1 to 0.5 uM by Western blot analysis; format: functional, cell-based; conditions: dose 0.1-0.5 µM, time 2-6 hrs, TDE = time-dependent effect
[33] = system: Hep 3B2; assay: Inhibition of autophagy in human Hep3B cells assessed as increase in p62 expression measured at 0.1 to 0.5 uM by Western blot analysis; format: functional, cell-based; conditions: dose 0.1-0.5 µM, time 2-6 hrs, TDE = time-dependent effect

Chain of Serine/threonine-protein kinase AKT (Homo sapiens) (P31749 whole entry, looked up): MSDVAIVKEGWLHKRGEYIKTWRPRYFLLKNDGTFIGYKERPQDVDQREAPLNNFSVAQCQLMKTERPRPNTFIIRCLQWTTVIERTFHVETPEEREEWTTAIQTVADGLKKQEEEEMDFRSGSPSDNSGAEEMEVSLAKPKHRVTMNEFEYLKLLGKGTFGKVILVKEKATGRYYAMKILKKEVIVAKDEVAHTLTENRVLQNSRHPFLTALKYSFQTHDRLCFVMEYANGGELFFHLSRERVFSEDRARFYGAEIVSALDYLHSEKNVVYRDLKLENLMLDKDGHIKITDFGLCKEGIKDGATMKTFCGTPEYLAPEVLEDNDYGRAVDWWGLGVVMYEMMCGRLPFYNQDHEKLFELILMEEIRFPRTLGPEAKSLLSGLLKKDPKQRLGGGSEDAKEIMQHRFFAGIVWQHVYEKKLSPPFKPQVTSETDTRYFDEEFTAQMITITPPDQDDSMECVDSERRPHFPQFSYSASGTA
Chain of Serine/threonine-protein kinase AKT (Homo sapiens) (P31751 whole entry, looked up): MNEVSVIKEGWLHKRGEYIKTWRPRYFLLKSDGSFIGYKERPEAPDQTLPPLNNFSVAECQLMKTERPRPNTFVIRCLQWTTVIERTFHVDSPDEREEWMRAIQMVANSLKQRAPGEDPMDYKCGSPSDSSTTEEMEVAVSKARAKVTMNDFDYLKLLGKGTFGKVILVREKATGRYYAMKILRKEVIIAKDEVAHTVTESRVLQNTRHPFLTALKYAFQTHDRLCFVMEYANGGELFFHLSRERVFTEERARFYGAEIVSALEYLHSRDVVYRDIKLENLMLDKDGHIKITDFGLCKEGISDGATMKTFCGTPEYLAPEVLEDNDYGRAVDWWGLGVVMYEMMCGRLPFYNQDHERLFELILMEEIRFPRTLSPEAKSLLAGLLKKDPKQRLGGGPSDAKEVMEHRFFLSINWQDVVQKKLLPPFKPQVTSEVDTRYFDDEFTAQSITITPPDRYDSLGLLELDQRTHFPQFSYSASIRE
Chain of Serine/threonine-protein kinase AKT (Homo sapiens) (Q9Y243 whole entry, looked up): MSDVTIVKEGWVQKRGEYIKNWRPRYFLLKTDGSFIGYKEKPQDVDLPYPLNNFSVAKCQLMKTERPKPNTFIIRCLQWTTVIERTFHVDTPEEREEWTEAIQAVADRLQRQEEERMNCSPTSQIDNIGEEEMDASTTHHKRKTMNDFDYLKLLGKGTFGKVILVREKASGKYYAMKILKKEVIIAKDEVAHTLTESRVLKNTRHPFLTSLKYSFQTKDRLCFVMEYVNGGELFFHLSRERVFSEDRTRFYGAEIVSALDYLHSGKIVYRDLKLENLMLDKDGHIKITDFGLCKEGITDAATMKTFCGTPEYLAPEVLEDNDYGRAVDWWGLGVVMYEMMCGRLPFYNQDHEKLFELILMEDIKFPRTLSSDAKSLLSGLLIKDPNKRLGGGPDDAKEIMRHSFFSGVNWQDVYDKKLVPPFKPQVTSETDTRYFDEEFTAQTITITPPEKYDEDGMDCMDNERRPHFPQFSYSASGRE

SMILES: C=CC1CN2CCC1CC2[C@@H](NC(=O)Nc1ccc(C(F)(F)F)cc1)c1ccnc2ccc(OC)cc12 (some centres undefined)
IC50 [1]: 0.6 µM | IC50 [2]: 0.62 µM | IC50 [3]: 0.59 µM | IC50 [4]: 0.42 µM | IC50 [5]: 1.08 µM | IC50 [6]: 0.79 µM

SMILES: C=CC1CN2CCC1C[C@H]2[C@@H](NC(=O)Nc1cc(C)cc(C)c1)c1ccnc2ccc(OC)cc12 (some centres undefined)
IC50 [1]: > 10 µM | IC50 [2]: > 10 µM | IC50 [3]: 5.12 µM | IC50 [4]: 7.31 µM | IC50 [5]: 5.16 µM | IC50 [6]: > 10 µM

SMILES: C=CC1CN2CCC1C[C@H]2[C@@H](NC(=O)Nc1ccc(OC)cc1)c1ccnc2ccc(OC)cc12 (some centres undefined)
IC50 [1]: 6.29 µM | IC50 [2]: 5.85 µM | IC50 [3]: 9.92 µM | IC50 [4]: > 10 µM | IC50 [5]: 9.55 µM | IC50 [6]: > 10 µM

SMILES: C=CC1CN2CCC1C[C@H]2[C@@H](NC(=O)Nc1cc(OC)cc(OC)c1)c1ccnc2ccc(OC)cc12 (some centres undefined)
IC50 [1]: 3.81 µM | IC50 [2]: 2.26 µM | IC50 [3]: 3.53 µM | IC50 [4]: 5.87 µM | IC50 [5]: 5.09 µM | IC50 [6]: 8.46 µM

SMILES: C=CC1CN2CCC1C[C@H]2[C@@H](NC(=O)Nc1cccc(C(F)(F)F)c1)c1ccnc2ccc(OC)cc12 (some centres undefined)
IC50 [1]: 6.1 µM | IC50 [2]: 1.48 µM | IC50 [3]: 1.62 µM | IC50 [4]: 6.42 µM | IC50 [5]: > 10 µM | IC50 [6]: > 10 µM

SMILES: C=CC1CN2CCC1CC2[C@@H](NC(=O)Nc1ccccc1)c1ccnc2ccc(OC)cc12 (some centres undefined)
IC50 [1]: 4.02 µM | IC50 [2]: > 10 µM | IC50 [3]: > 10 µM | IC50 [4]: > 10 µM | IC50 [5]: 8.67 µM | IC50 [6]: > 10 µM

SMILES: C=CC1CN2CCC1CC2[C@H](NC(=O)Nc1cc(C(F)(F)F)cc(C(F)(F)F)c1)c1ccnc2ccc(OC)cc12 (some centres undefined)
IC50 [1]: 0.62 µM | IC50 [2]: 0.42 µM | IC50 [3]: 0.38 µM | IC50 [4]: 0.6 µM | IC50 [5]: 0.69 µM | IC50 [6]: 0.92 µM

SMILES: C=CC1CN2CCC1CC2[C@@H](NC(=O)Nc1ccc(F)cc1)c1ccnc2ccc(OC)cc12 (some centres undefined)
IC50 [1]: 3.65 µM | IC50 [2]: 2.81 µM | IC50 [3]: 2 µM | IC50 [4]: > 10 µM | IC50 [5]: 5.88 µM | IC50 [6]: 3.9 µM

SMILES: C=CC1CN2CCC1CC2[C@@H](NC(=S)Nc1cc(C(F)(F)F)cc(C(F)(F)F)c1)c1ccnc2ccc(OC)cc12 (some centres undefined)
IC50 [1]: 0.28 µM | IC50 [2]: 0.37 µM | IC50 [3]: 0.29 µM | IC50 [4]: 0.34 µM | IC50 [5]: 0.77 µM | IC50 [6]: 0.78 µM

inhibition [11]: Active
SMILES: C=CC1CN2CCC1CC2[C@@H](NC(=O)Nc1cc(C(F)(F)F)cc(C(F)(F)F)c1)c1ccnc2ccc(OC)cc12 (some centres undefined)
IC50 [1]: 0.13 µM | IC50 [2]: 0.23 µM | IC50 [3]: 0.27 µM | IC50 [4]: 0.27 µM | IC50 [5]: 0.69 µM | IC50 [6]: 0.72 µM | Activity [7]: Dose-dependent effect | Activity [8]: Dose-dependent effect | Activity [9]: Active | Activity [10]: Active | Activity [12]: Active | Activity [13]: Active | Activity [14]: Active | Activity [15]: Active | Activity [16]: Active | Activity [17]: Dose-dependent effect | Activity [18]: Dose-dependent effect | Activity [19]: Dose-dependent effect | Activity [20]: Dose-dependent effect | Activity [21]: Dose-dependent effect | Activity [22]: Dose-dependent effect | Activity [23]: Active | Activity [24]: inactive | Activity [25]: inactive | Activity [26]: Active | Activity [27]: Active | Activity [28]: Tde | Activity [29]: Tde | Activity [30]: Tde | Activity [31]: Tde | Activity [32]: Tde | Activity [33]: Tde

SMILES: CCN(CC)CCCC(C)Nc1ccnc2cc(Cl)ccc12 (centres undefined) [CHLOROQUINE]
IC50 [1]: > 10 µM | IC50 [2]: > 10 µM | IC50 [3]: > 10 µM | IC50 [4]: > 10 µM | IC50 [5]: > 10 µM | IC50 [6]: > 10 µM

SMILES: C=CC1CN2CCC1C[C@H]2[C@@H](NC(=O)Nc1ccccc1C(F)(F)F)c1ccnc2ccc(OC)cc12 (some centres undefined)
IC50 [1]: 6.51 µM | IC50 [2]: 5.72 µM | IC50 [3]: 3.05 µM | IC50 [4]: > 10 µM | IC50 [5]: > 10 µM | IC50 [6]: > 10 µM
